Measurements taken from publication PMC9331863 (Antibiotics, 2022).
Read-outs that look alike come from different tables or passages of the source.

Assays:
[1] = Population pharmacokinetic modelling of dalbavancin plasma concentrations (TDM) in patients; settings: for Q, inter-compartmental clearance / V1, central volume of distribution / V2, peripheral volume of distribution: typical value (%RSE)
Procedure: The study was approved by the local Ethics Committee (registration number 897/2021/Oss/AOUBo). Signed informed consent was waived due to the retrospective and observational nature of the investigation according to hospital agreements.
The dose amount (1000 mg or 1500 mg) was arbitrarily decided by the infectious diseases consultant at each patient center. The decision to administer any additional doses was taken in relation to the clinical evaluation of disease progression after at least 4 weeks from the administration of the second dose and it was based on the patient’s physical examination and on the trend of inflammatory biomarkers.
Blood samples were collected at different time-points after the second dose and sent to our lab for analysis. […] The lower limit of quantification was 0.5 mg/L.
At a first stage, a basic model was developed, by comparing one-, two- and three-compartment models with linear elimination. All individual parameters were log-normally distributed. Exponential random effects were assumed to describe inter-individual variability. Correlations between random effects were tested in the variance–covariance matrix and implemented into the structural model accordingly. Residual variability was tested according to three different error models (constant, proportional and combined error model).
The following covariates were tested on the PK parameters of the base model: age, gender, weight, height, serum albumin, serum creatinine and CLCR. The parameter–covariate relationships were modeled as additive or proportional shifts from the reference category for binary covariates, whereas the effect of continuous covariates was modeled using a power function. A covariate was included in the model according to the results of the likelihood ratio test (LRT) and if a reduction in the BIC and a decrease in the interpatient variability of the fixed-effect parameters were obtained. Descriptions of the pharmacokinetic model building and covariate analysis are reported in the Supplementary Materials.

[2] = cited from earlier work
[3] = real-world use beyond approved indications, outpatient antimicrobial treatment; cited from earlier work
[4] = cited from earlier work; remark: listed apart in the source
Description: Data were retrieved from registrative phase II/III clinical trials.

[5] = median (min–max) of population, 69 patients, two-compartment final model
[6] = three-compartment model, 703 patients with ABSSSI, ref Carrothers et al. [12]

## CN[C@H]1C(=O)N[C@@H]2Cc3ccc(cc3)Oc3cc4cc(c3O[C@@H]3O[C@H](C(=O)O)[C@@H](O)[C@H](O)[C@H]3NC(=O)CCCCCCCCC(C)C)Oc3ccc(cc3Cl)[C@@H](O)[C@@H]3NC(=O)[C@H](NC(=O)[C@@H]4NC(=O)[C@@H](NC2=O)c2cc(cc(O)c2Cl)Oc2cc1ccc2O)c1ccc(O)c(c1)-c1c(O[C@H]2O[C@H](CO)[C@@H](O)[C@H](O)[C@@H]2O)cc(O)cc1[C@@H](C(=O)NCCCN(C)C)NC3=O [dalbavancin]
[1]; base model
  Q, inter-compartmental clearance: 0.026 (17.9) L/h
  V1, central volume of distribution: 6.15 (4.79) L
  V2, peripheral volume of distribution: 10.51 (13.7) L
[1]; final model
  Q, inter-compartmental clearance: 0.026 (18.1) L/h
  V1, central volume of distribution: 6.14 (5.26) L
  V2, peripheral volume of distribution: 9.52 (19.0) L
[1]; human, in vivo
  CL, total body clearance: 0.029 (11.6) L/h
  Vd: 15.7 L
[1]; human, in vivo, CL, total body clearance
  clearance: 0.683 mL/min
[1]; human, in vivo, population CL
  clearance: 0.717 mL/min
[1]; [5]
  population V1: 6.21 (5.10–7.19) L
  population V2: 9.48 (7.60–11.89) L
[2]
  penetration rate into bone tissue: 13.1%
[3]
  overall clinical success rate: greater than 80%
[4]
  elimination half-life: > 180 h
[4]; [6]
  population CL: 0.053 L/h
  total V: 15.0 L
[4]; two-compartment model, 532 patients (ABSSSI, bloodstream infections), ref Buckwalter et al. [11]
  population CL: 0.057 L/h
[4]; two-compartment model, 532 patients, ref Buckwalter et al. [11]
  total V: 15.9 L
